Values of other authors, collected in PMC10425256, “Antioxidant and Enzyme Inhibitory Potential of Streptomyces sp. G-18 Grown in Various Media” (International Journal of Microbiology, 2023).

| Compound | inhibition against lipase enzymes (lipase enzymes) | AChE inhibition (AChE) |
| --- | --- | --- |
| CCCCC/C=C\C/C=C\C[C@@H](C[C@@H]1OC(=O)[C@H]1CCCCCC)OC(=O)[C@H](CC(C)C)NC=O [lipstatin] | showed inhibition | – |
| Cyclipostins | showed inhibition | – |
| CC(C)=CCC/C(C)=C/Cc1ccc(O)c2nc3cccc(O)c3nc12 [Geranylphenazinediol] | – | low micromolar range |
